Key:
mature adipocytes = assay: Intracellular triglyceride quantity in mature adipocytes; format: cell-based, human; settings: Caffeine 300ppm
Method: (§1) Mature human adipocytes were treated with zerumbone to evaluate daily for 3 days. A daily titration of the released glycerol, reflecting lipolysis, was measured in the medium, before the media were changed in order to monitor the long-term effect.
Table 5: comparison of the intracellula triglyceride quantity found in mature adipocytes
Table 20: Comparison of the intracellular triglyceride content found in the mature adipocytes; compared effect of zerumbone, caffeine and of a mixture of zerumbone and caffeine.

Mature human adipocytes [1] = assay: Lipolytic effect, daily titration of released glycerol over 3 days; format: cell-based; settings: Caffeine 300ppm; for activation at 300 ppm: Homo sapiens, Adipocyte, read-out: released glycerol, versus negative control
Method: as §1
In a second test, mature human adipocytes were treated with the product to evaluate daily for 3 days. A daily titration of the released glycerol was performed in the media, just before changing of the media in order to monitor the long term effect. Table 19: Comparison of the lipolytic effect of caffeine, zerumbone and of a mixture of caffeine and zerumbone on hypertrophied adipocytes in monolayer (n=4) at short and long term.

Mature human adipocytes [2] = assay: Lipolytic effect, released glycerol after 3 hours; format: cell-based; settings: Adipocyte, Caffeine 300ppm, contact time 3h, read-out: released glycerol, versus negative control
Method: In a first test, mature human adipocytes were treated with the product to evaluate for 3 hours, then titration of the released glycerol, reflecting lipolysis, was measured in the medium.

Sirtuin-1 = Sirtuin-1 level in keratinocytes, ELISA; format: cell-based; settings: Homo sapiens, Keratinocyte, 144 h, positive control at 500µm, read-out: Sirtuin-1 % Variation
Method: Human keratinocytes were cultured in the presence or absence of the Globularia cordifolia extract for 6 days and were then grinded and the intracellular levels of sirtuin-1 were measured using an ELISA method. Results were standardized by parallel measurement of total protein (BCA).

BSA = assay: Anti-glycation activity, BSA and fructose, fluorescence; format: biochemical; settings: positive control at 0.03%
Excerpt: The anti-glycation effect of the extract of Globularia cordifolia was studied using a protein model, the BSA, and a natural reducing sugar, fructose which glycates, i.e. binds, to the protein in a non-enzymatic manner. The product of this binding is fluorescent and is monitored with a fluorimeter.

Cn1c(=O)c2c(ncn2C)n(C)c1=O [Caffeine, caffeine]
Triglycerides (mature adipocytes): 7120 ± 542 µM/10^6 cell. | inhibition at 300 ppm (mature adipocytes; Homo sapiens, Adipocyte, 72 h, dns, read-out: Triglycerides Variation (%)): 9% | released glycerol, versus negative control (Mature human adipocytes [1]; contact time 1 day): +200% | activation at 300 ppm (Mature human adipocytes [1]; 24 h, contact time 1 day): 200% | activation at 300 ppm (Mature human adipocytes [1]; 48 h, contact time 2 days): 34% | activation at 300 ppm (Mature human adipocytes [1]; 72 h, contact time 3 days): 18% | activation at 300 ppm (Mature human adipocytes [2]): 171%

Cc1c(C)c2c(c(C)c1O)CCC(C)(C(=O)O)O2 (stereo not drawn) [Trolox]
activation at 500 µM (Sirtuin-1): 27%

N=C(N)NN [aminoguanidine]
Glycation % Variation (BSA): -85%

Source: EP2802310B1, “NEW USE OF ZERUMBONE AND COMPOSITIONS COMPRISING ZERUMBONE” (Sederma, priority 2012, dated 2013)
